# Assay results: patent US20180071298A1, “METHODS FOR TREATING ALZHEIMER'S DISEASE” (Reviva Pharmaceuticals, Inc., priority 2015, published 2018)
# Key:
# [1] = target: Human Cortex or Human recombinant 5-HT2A (Homo sapiens, UniProt P28223); experiment: Serotonin 5HT2A radioligand binding assay; conditions: [3H]-Ketanserin
# Human recombinant 5-HT1A = target: T1, Human recombinant 5-HT1A (Homo sapiens, UniProt P08908); experiment: Serotonin 5HT1A radioligand binding assay; conditions: [3H]-8-OH-DPAT
# T1 construct: expressed in transfected cells
# T1 sequence (P08908 1-422): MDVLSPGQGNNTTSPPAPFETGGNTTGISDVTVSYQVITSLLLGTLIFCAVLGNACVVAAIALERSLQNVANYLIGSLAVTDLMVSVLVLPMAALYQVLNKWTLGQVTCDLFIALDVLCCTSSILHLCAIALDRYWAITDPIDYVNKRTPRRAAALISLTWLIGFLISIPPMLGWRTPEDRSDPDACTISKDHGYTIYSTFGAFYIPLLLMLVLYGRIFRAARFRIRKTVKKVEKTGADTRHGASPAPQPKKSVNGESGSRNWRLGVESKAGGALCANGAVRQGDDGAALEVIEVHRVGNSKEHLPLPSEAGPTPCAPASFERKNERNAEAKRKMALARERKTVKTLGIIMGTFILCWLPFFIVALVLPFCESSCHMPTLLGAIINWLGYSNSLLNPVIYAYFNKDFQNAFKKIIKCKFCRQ
# From the text: Serotonin, 5HT1A Radioligand Binding Assay
# Receptor Source: Human recombinant 5-HT1A expressed mammalian cells
# Radioligand: [^3H]-8-OH-DPAT (221 Ci/mmol)
# Control Compound: 8-OH-DPAT
# Sequence of Human Cortex or Human recombinant 5-HT2A (P28223 whole entry): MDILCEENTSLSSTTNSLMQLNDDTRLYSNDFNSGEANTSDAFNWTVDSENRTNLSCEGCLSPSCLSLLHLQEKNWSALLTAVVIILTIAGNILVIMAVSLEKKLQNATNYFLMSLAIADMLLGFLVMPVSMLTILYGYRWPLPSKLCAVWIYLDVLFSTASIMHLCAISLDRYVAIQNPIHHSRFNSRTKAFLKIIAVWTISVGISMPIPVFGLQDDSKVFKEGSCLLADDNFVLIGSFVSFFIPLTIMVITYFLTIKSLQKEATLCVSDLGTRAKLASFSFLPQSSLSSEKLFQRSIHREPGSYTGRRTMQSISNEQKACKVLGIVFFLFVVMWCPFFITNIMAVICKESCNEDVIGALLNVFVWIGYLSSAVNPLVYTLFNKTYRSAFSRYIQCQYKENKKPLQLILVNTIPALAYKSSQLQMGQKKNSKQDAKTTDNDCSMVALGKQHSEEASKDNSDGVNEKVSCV
compound,measurement,setting,value
"O=C1COc2ccc(OCCCCN3CCN(c4cccc(Cl)c4Cl)CC3)cc2N1 [Compound A, 6-(4-(4-(2,3-dichlorophenyl)piperazin-1-yl)butoxy)-2H-benzo[b][1,4]oxazin-3(-4H)-one]","Ki, Serotonin 5-HT2A",[1],111000 pM
same,Ki,Human recombinant 5-HT1A,650 pM
